In US9617283B2, “Bicyclic heterocycle compounds and their uses in therapy” (ASTEX THERAPEUTICS LIMITED, priority 2012, dated 2017):
Structures can show the parent of a compound that is named as a salt. Where two headings read alike, the source gives them in different places.

How the values were obtained:
[1] = target: T1, BIR3 domain of human XIAP (residues 252-350) (Homo sapiens, UniProt P98170); test: XIAP in vitro competitive displacement binding assay (fluorescence polarization); details: percent inhibition (PI) at 0.04 μM; 60 min; dihydrochloride, 0.04 µM
T1 construct: BIR3 domain of human XIAP (residues 252-350); His-tag (cleaved yes); made in house; host or cells: Escherichia coli
T1 sequence (P98170 252-350): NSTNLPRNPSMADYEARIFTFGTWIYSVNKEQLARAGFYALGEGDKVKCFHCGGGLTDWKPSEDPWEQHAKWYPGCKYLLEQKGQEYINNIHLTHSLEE

[2] = target: T2, BIR3 domain of human cIAP-1 (residues 267-363) (Homo sapiens, UniProt Q13490); test: cIAP-1 in vitro competitive displacement binding assay (fluorescence polarization)
T2 construct: human cIAP-1 (residues 267-363) fused to a GST-tag; GST-tag (cleaved yes); made in house; host or cells: Escherichia coli
T2 sequence (Q13490 267-363): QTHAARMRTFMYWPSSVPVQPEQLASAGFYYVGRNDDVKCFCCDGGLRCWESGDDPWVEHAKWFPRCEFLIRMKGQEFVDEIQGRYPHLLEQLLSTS

[3] = tested on: EVSA-T (human breast carcinoma); test: Anti-proliferative activity, Alamar Blue assay, EVSA-T; format: cell-based
Description: Anti-Proliferative Activity
The method is based on the ability of viable cells to reduce resazurin to its fluorescent product resorufin. For each proliferation assay cells are plated onto 96 well plates and allowed to recover for 16 hours prior to the addition of inhibitor compounds (in 0.1% DMSO v/v) for a further 72 hours. […] The anti-proliferative activities of compounds of the invention can be determined by measuring the ability of the compounds to inhibit growth in 3 cancer cell lines: • EVSA-T (human breast carcinoma) DSMZ cat. no.

[4] = EVSA-T cell line, 72 hours, Alamar Blue, dihydrochloride, read-out: EVSA-T prolif

With `CCCC(O)c1cnc2c(c1)N(C(=O)CN1C[C@@H](C)NC[C@@H]1CN1Cc3ccccc3C1=O)CC2(C)C` (single isomer, unassigned) [Example 91, dihydrochloride] the “Xiap IC50 or PI μM” value [1] was 40%@0.04, the inhibition at 0.04 µM ([2]; 3 h, percent inhibition (PI) at 0.04 μM, read-out: cIAP1 IC50 or PI μM) was 53% and the EC50 [3, 4] was 330 nM.

For `CCC1CN(C[C@H]2CN[C@H](C)CN2CC(=O)N2CC(C)(C)c3ncc([C@@H](O)c4ccc(F)cc4)cc32)C(=O)CO1` (single isomer, unassigned) [Example 111, (R or S)-6-ethyl-4-{[(2R,5R)-1-(2-{6-[(S)-(4-Fluorophenyl)(hydroxy)methyl]-3,3-dimethyl-1H,2H,3H-pyrrolo[3,2-b]pyridin-1-yl}-2-oxoethyl)-5-methylpiperazin-2-yl]methyl}morpholin-3-one dihydrochloride], the “Xiap IC50 or PI μM” value [1] was 68%@0.04, the “cIAP1 IC50 or PI μM” value ([2]; percent inhibition (PI) at […], 180 min, dihydrochloride, […]) was 62%@0.012 and the EC50 [3, 4] was 77 nM. For the same compound, the EC50 ([3]; Homo sapiens, EVSA-T, read-out: EC50 in EVSA-T cell line assays) was < 1000 nM.
